We go through six compounds from patent US12637418B2, “Heterocyclic compounds as antagonist of NMDA” (TAKEDA PHARMACEUTICAL COMPANY LIMITED, priority 2019, dated 2026).

The conditions of assay [1]: continuous intravenous administration; cited from earlier work.
The conditions of assay [2]: rodents; cited from earlier work.
For assay [3], the target named is NMDA receptor composed of four subunits including 2 sets of heterodimers of NR1 and NR2B (human GRIN1 and GRIN2B expressed in HEK293 cell) (Homo sapiens, UniProt Q13224). As to the kind of experiment: NR2B Ca^2+ influx assay. The assay is classed as cell-based. To be noted: 10 μM final compound concentration; 30 μM glutamic acid and 30 μM glycine; HEK293 cells expressing GRIN1 and GRIN2B; Fluo-4 fluorescence; read-out: inhibitory rate (10 μM compound concentration). The source says: To confirm the “antagonistic action on an NMDA receptor containing the NR2B subunit” of the compound of the present invention, human embryonic kidney cell expressing the “NMDA receptor composed of four subunits including 2 sets of heterodimers of NR1 and NR2B”, specifically HEK293 cell expressing human glutamate ionotropic receptor NMDA type subunit 1 (GRIN1) and human glutamate ionotropic receptor NMDA type subunit 2B (GRIN2B), was used and the activation suppressive effect on the receptors was measured.
HEK293 cells that express GRIN1 and GRIN2B were purchased from ChanTest (Human NMDA (NR1/NR2B) Receptor-expressing, stable replicating cell line (HEK293) catalog No. CT6121).
As an index of the NMDA receptor activation, intracellular calcium ion (Ca^2+) influx caused by the binding of glycine and glutamic acid with NR1 and NR2B, respectively, was used.
HEK293 cells that express GRIN1 and GRIN2B were cultured in DMEM/F-12 (COSMO BIO, 10-092-CM) medium added with 10% FBS (fetal bovine serum, AusGene), 100 units/mL penicillin, 100 μg/mL streptomycin, 500 μg/mL neomycin, 100 μg/mL Zeocin (registered trade mark, Invitrogen), 5 μg/mL Blasticidin in a cell culture flask in an incubator (under 37° C., 5% CO2).
The cells were detached from the flask with trypsin the day before the assay, suspended in a seeding medium (DMEM (Invitrogen, 31053) added with 10% FBS, 100 units/mL penicillin, 100 μg/mL streptomycin) at 8×10^5 cells/mL, seeded by 25 μL per well in a 384-well plate (Falcon, 356663) at 20000 cells/well, and cultured overnight in an incubator. On the day of the assay, tetracycline (Wako Pure Chemical Industries, Ltd., 209-16561) was diluted with the seeding medium at 2 μg/mL, added at 25 μL/well to the plate seeded with the cells, and cultured for 2 hr in an incubator. Thereafter, the medium was removed, and the cells were washed with 50 μL/well assay buffer (137 mM NaCl, 4 mM KCl, 1.8 mM CaCl2, 10 mM HEPES (pH 7.2), 10 mM Glucose, 0.1% BSA). Then, a loading buffer (assay buffer added with 2.5 μM Fluo-4AM, 2 mM Amaranth, 1 mM Tartrazine) was added at 25 μL/well, and the cells were incubated in the incubator for 30 min, and at room temperature for 15 min. A solution of the Example compound diluted with the above-mentioned assay buffer at 30 μM (final concentration 10 μM) was added at 25 μL/well, and the cells were left standing for 15 min at room temperature. Using FDSS7000EX/μCELL (Hamamatsu Photonics K.K.), an assay buffer containing 30 μM glutamic acid and 30 μM glycine was added at 25 μL/well, and fluorescence signals with wavelengths of Excitation 480 nm and Emission 540 nm were measured every 3 seconds for 5 min. The inhibitory activity was calculated as a relative activity value (inhibitory rate) that inhibits 100% of the cumulative value of the fluorescence value of a well added with an assay buffer free of glutamic acid, glycine, relative to the cumulative value of the fluorescence value of each well.

Assay [4] relates to NMDA receptor containing NR2B subunit (NMDA receptor expressed in the hippocampus tissue). Kind of assay: In vivo [^3H]MK-801 binding test. Details: species or system Sprague Dawley rats. The note with it: [^3H]MK-801 binding inhibitory rate, rat hippocampus, vehicle 100%, MK-801 maleate 0%. On the procedure:
In Vivo [^3H]MK-801 Binding Test
To confirm the “functionally antagonistic action in vivo for NMDA receptor containing NR2B subunit” that the compound of the present invention has, a binding test was performed using a tritium-labeled form of MK-801 ((5R,10S)-5-methyl-10,11-dihydro-5H-5,10-epiminodibenzo[a,d][7]annulene) ([^3H]MK-801) which is a compound that binds to the gate of the NMDA receptor.
An Example compound (1 mg/kg/2 mL, 0.5% MC water) or vehicle ([…], 0.5% MC water) was orally administered (p.o.) to Sprague Dawley rats (body weight 180-260 g). After a certain period of time (near the time when the maximum blood concentration was reached), [^3H]MK-801 (20 μCi/kg/mL, Muromachi Kikai Co., Ltd.) was intravenously administered from the tail vein. […] 10 mL of liquid scintillator A (Fujifilm Wako Pure Chemical Corporation) was added, and the residual radioactivity was measured by a liquid scintillation counter (ALOKA LSC-6100). The residual radioactivity of 100 μL of the homogenate before filtration through the glass filter was also measured in the same manner. By calculating [residual radioactivity in filter/residual radioactivity in 100 μL of homogenate], correction by the dose of [^3H]MK-801 was performed, and the value was used as a binding ratio of [^3H]MK-801 in the NMDA receptor expressed in the hippocampus tissue of each individual. […]

For assay [5] the following is noted: in vivo; cited from earlier work.
The conditions of assay [6]: intravenous single administration; cited from earlier work.
For assay [7] the following is noted: in vivo; cited from earlier work. The source holds these as a separate data set.

Chain of NMDA receptor composed of four subunits including 2 sets of heterodimers of NR1 and NR2B (human GRIN1 and GRIN2B expressed in HEK293 cell) (Q13224 27-1484, other chains not shown): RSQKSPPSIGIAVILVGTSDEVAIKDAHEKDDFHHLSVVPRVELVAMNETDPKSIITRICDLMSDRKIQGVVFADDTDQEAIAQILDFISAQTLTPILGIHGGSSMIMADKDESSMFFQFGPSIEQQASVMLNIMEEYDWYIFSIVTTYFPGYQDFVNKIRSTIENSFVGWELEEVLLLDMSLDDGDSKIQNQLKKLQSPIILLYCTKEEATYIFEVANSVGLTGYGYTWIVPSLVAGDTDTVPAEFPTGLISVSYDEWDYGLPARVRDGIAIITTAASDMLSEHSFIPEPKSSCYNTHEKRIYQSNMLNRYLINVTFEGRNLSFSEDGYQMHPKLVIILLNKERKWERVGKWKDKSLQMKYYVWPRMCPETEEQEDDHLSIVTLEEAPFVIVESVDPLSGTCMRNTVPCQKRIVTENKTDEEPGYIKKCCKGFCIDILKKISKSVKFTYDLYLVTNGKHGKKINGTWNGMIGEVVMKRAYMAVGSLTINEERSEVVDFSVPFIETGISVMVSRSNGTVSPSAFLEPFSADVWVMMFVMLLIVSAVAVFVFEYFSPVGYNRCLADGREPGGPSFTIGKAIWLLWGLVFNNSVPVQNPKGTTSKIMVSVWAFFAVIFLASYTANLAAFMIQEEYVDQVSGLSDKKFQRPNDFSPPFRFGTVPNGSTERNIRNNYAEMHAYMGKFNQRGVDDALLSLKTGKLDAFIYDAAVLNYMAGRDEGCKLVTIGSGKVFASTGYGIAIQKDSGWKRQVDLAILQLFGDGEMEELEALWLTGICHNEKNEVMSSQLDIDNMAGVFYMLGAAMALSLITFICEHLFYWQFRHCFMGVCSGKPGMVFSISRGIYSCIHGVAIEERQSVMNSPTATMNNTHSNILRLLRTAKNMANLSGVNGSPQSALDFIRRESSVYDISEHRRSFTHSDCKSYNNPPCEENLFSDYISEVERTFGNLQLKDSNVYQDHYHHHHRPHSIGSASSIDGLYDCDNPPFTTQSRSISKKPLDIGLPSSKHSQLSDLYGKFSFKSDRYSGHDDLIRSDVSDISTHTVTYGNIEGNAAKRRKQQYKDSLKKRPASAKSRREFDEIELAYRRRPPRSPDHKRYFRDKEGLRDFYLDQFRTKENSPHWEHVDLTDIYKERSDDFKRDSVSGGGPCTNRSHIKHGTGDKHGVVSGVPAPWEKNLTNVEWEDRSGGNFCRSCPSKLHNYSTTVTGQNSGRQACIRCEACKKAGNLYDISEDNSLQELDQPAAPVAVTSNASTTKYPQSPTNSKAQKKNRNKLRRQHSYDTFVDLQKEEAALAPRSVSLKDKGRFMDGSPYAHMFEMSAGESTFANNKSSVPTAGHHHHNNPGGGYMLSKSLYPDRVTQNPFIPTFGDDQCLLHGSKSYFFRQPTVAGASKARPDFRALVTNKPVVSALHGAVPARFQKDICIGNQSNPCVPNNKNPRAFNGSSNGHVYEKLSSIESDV

Take `C[C@@H]([C@@H](O)c1ccc(O)cc1)N1CCC(O)(c2ccccc2)CC1` [CP-101, 606]: the treatment resistant-depression symptom entry in assay [1] is listed as “significantly improves treatment resistant-depression symptom”. The “number of occurrence and depth of cortical spreading depression” value in assay [2] is “suppress the number of occurrence and the depth of cortical spreading depression”.
Consider `COc1ncc(C#N)cc1CNC(=O)c1cnc(OC(F)F)c(F)c1` [Example 9, N-[(5-cyano-2-methoxypyridin-3-yl)methyl]-6-(difluoromethoxy)-5-fluoropyridine-3-carboxamide], for which, in assay [3], the inhibition at 10 µM came to 94%. For the same compound, in assay [4], the “inhibitory rate (1 mg/kg, p.o.)” value was 10%.
With `COc1ccc(C#N)c(F)c1CNC(=O)c1cnc(OC(F)F)c(F)c1` [Example 17, N-[(3-cyano-2-fluoro-6-methoxyphenyl)methyl]-6-(difluoromethoxy)-5-fluoropyridine-3-carboxamide], the inhibition at 10 µM in assay [3] was found to be 96%. Moreover, the “inhibitory rate (1 mg/kg, p.o.)” value in assay [4] amounted to 17%.
Turning to `CC(C(O)c1ccc(O)cc1)N1CCC(Cc2ccccc2)CC1` (stereo not drawn) [Ifenprodil], the pain sense threshold result in assay [5] is “the pain sense threshold increases”.
Take `CNC1(c2ccccc2Cl)CCCCC1=O` (stereo not drawn) [ketamine]: the “depression symptoms accompanying major depression and bipolar disorder” value in assay [6] was “improves depression symptoms accompanying major depression and bipolar disorder rapidly and in a sustained manner”.
As for `CC12CC3CC(C)(C1)CC(N)(C3)C2` [memantine], the “peripheral symptoms of dementia” value in assay [7] is recorded as “partially improves peripheral symptoms of dementia”.
